Read-outs that look alike come from different tables or passages of the source.
Tests used:
rat = settings: cited from earlier work
mice = settings: electrically induced convulsions; cited from earlier work
H3 receptors [1] = biological target: T1, H3 receptors (Cavia porcellus, UniProt Q9JI35); experiment: pA2 at H3 receptor (guinea pig neuronal ileum contraction assay); type: biochemical
Text: pA2=-logEC50, as defined by J. Hey, Eur. J. Pharmacol., (1995), Vol. 294, 329.

H3 receptors [2] = biological target: T1, H3 receptors; experiment: H3-Receptor Binding Assay (guinea pig brain membranes, [3H]R-α-methylhistamine or [3H]Nα-methylhistamine)
histamine-H3 receptor = settings: cited from earlier work
[3] = HCl salt, pA2=-logEC50 as defined by J. Hey, read-out: pA2 (converted)
[4] = HCl salt, pA2=-logEC50 as defined by J. Hey
[5] = HCl salt, guinea pig brain membranes, pH 7.5, 30° C., 30 min

T1 sequence (Q9JI35 whole entry): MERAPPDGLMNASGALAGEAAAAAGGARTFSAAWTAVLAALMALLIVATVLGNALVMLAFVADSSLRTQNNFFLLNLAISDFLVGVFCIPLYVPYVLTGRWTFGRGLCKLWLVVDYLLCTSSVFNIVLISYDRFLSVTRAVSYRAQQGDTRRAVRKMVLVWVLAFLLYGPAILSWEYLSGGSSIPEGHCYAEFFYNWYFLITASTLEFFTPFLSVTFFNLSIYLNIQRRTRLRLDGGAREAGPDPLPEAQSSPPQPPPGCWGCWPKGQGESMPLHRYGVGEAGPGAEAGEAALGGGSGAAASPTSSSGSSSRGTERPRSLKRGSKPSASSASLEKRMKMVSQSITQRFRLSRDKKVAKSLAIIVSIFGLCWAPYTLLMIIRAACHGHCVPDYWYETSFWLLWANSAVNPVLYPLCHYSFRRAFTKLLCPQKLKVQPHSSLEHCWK

Structure (SMILES)	Kb (H3 receptors [1]; [3])	Ki (H3 receptors [2])	other results
S=C(NC1CCCCC1)N1CCC(c2cnc[nH]2)CC1 [thioperamide]	–	–	reversal learning (rat): improve short-term memory and reversal learning; short-term memory (rat): improve short-term memory; duration of each phase of convulsion (mice): decreased the duration of each phase of convulsion; electroconvulsive threshold (mice): raised the electroconvulsive threshold
Fc1ccc(OCC2CCN(CCCCc3c[nH]cn3)CC2)cc1 [compound 34]	20 nM	10 nM	–
OCCN1CCC(CCCC2CCN(CCCc3c[nH]cn3)CC2)CC1 [compound 29]	–	–	pA2 (H3 receptors [1]; [4]): 7.1; Ki (H3 receptors [2]; [5]): 12 nM
OC1(c2ccc(Cl)cc2)CCN(CCCCc2c[nH]cn2)CC1 [compound 26]	–	6 nM	Kb (H3 receptors [1]): 10 nM
CCCN(CC1CCN(CCCCc2c[nH]cn2)CC1)S(=O)(=O)c1ccc(Cl)cc1 [compound 5]	–	44 nM	–
O=C(NCc1ccc(OC(F)(F)F)cc1)C1CCN(CCCc2c[nH]cn2)CC1 [compound 13]	31.6 nM	24 nM	–
CCCN(CC1CCN(CCCCc2c[nH]cn2)CC1)S(=O)(=O)c1ccc(OC(F)(F)F)cc1 [compound 6]	316 nM	24 nM	–
OC1(c2ccc(Cl)cc2)CCN(CCCCCc2c[nH]cn2)CC1 [compound 27]	–	5 nM	Kb (H3 receptors [1]): 7.94 nM
O=C(c1ccc(F)cc1)C1CCN(CCCCc2c[nH]cn2)CC1 [compound 33]	6.31 nM	3 nM	–
O=C(NCc1ccc(Cl)cc1)C1CCN(CCCc2c[nH]cn2)CC1 [No. 12]	10 nM	29 nM	–
O=C(Nc1ccc(Cl)c(Cl)c1)C1CCN(CCCCc2c[nH]cn2)CC1 [No. 8]	158 nM	27 nM	–
CCOC(=O)C1CCN(CCCCc2c[nH]cn2)CC1 [compound 1]	–	22 nM	–
O=C(NC1CCN(CCCc2c[nH]cn2)CC1)c1ccc(F)cc1 [No. 18]	–	52 nM	–
CCCNC(=O)C1CCN(CCCCc2c[nH]cn2)CC1 [compound 3]	–	53 nM	–
OC1(c2cccc(C(F)(F)F)c2)CCN(CCCCc2c[nH]cn2)CC1 [compound 28]	–	60 nM	–
c1nc(CCCCN2CCC(N3CCCCC3)CC2)c[nH]1 [compound 24]	631 nM	100 nM	–
O=C(NC1CCN(CCCc2c[nH]cn2)CC1)c1ccc(OC(F)(F)F)cc1 [No. 17]	–	23 nM	–
O=C(Nc1ccc(OC(F)(F)F)cc1)C1CCN(CCCCc2c[nH]cn2)CC1 [No. 2]	0.501 nM	2 nM	–
CCC(=O)C1(c2ccccc2)CCN(CCCc2c[nH]cn2)CC1 [compound 35]	–	500 nM	–

Structure (SMILES)	Kb (H3 receptors [1]; [3])	Ki (H3 receptors [2])	other results
O=C(c1ccc(F)cc1)C1CCN(CCCc2c[nH]cn2)CC1 [compound 32]	20 nM	6 nM	–
OC1(c2ccc(Cl)cc2)CCN(CCCc2c[nH]cn2)CC1 [compound 25]	–	6 nM	Kb (H3 receptors [1]): 12.6 nM
O=C(Nc1ccc(Cl)cc1)C1CCN(CCCCc2c[nH]cn2)CC1 [No. 7]	–	35 nM	–
O=C(Nc1cccc(Cl)c1)C1CCN(CCCCc2c[nH]cn2)CC1 [compound 9]	1.26 nM	5.5 nM	–
Fc1ccc(C2=CCN(CCCCc3c[nH]cn3)CC2)cc1 [compound 31]	–	14 nM	Kb (H3 receptors [1]): 12.6 nM
O=C(Nc1cccc(O)c1)C1CCN(CCCc2c[nH]cn2)CC1 [compound 16]	–	700 nM	–
O=C(Nc1cccc(C(F)(F)F)c1)C1CCN(CCCCc2c[nH]cn2)CC1 [No. 10]	0.794 nM	9 nM	–
CC1(C(=O)Nc2ccc(OC(F)(F)F)cc2)CCCN(CCCCc2c[nH]cn2)C1 (stereo not shown) [No. 20]	–	170 nM	–
N=C(N)SCCCc1c[nH]cn1 [S-[3-(4(5)-imidazolyl)propyl]isothiourea]	–	–	H3 agonist/antagonist activity (histamine-H3 receptor): histamine-H3 antagonist
OCCN1CCC(CCCC2CCN(CCCCc3c[nH]cn3)CC2)CC1 [compound 30]	–	–	pA2 (H3 receptors [1]; [4]): 7.7; Ki (H3 receptors [2]; [5]): 7 nM
OC1(Cc2ccccc2)CCN(CCCc2c[nH]cn2)CC1 [compound 36]	–	660 nM	–
CCCNCC1CCN(CCCCc2c[nH]cn2)CC1 [No. 4]	–	200 nM	–
O=C(Nc1ccc(O)cc1)C1CCN(CCCc2c[nH]cn2)CC1 [compound 15]	–	100 nM	–
O=C(Nc1cccc(OC(F)(F)F)c1)C1CCN(CCCc2c[nH]cn2)CC1 [compound 11]	0.631 nM	1 nM	–
FC(F)(F)Oc1ccc(CNC2CCN(CCCCc3c[nH]cn3)CC2)cc1 [compound 21]	7.94 nM	13 nM	–
CCCCOc1ccc(NC(=O)C2CCN(CCCc3c[nH]cn3)CC2)cc1 [compound 14]	1 nM	10 nM	–
FC(F)(F)Oc1ccc(NCC2CCN(CCCCc3c[nH]cn3)CC2)cc1 [compound 22]	–	9 nM	–
CC1(C(=O)Nc2ccc(OC(F)(F)F)cc2)CCN(CCCCc2c[nH]cn2)CC1 [No. 19]	39.8 nM	180 nM	–

Source: US6133291A, “N-(imidazolylalkyl)substituted cyclic amines as histamine-H3 agonists or antagonists” (Schering Corporation, priority 1998, dated 2000)
